Where two headings read alike, the source gives them in different places.
Tests used:
A2B = target: T1, A2B (Homo sapiens, UniProt P29275); assay: Adenosine receptor binding affinity, human A2B
T1 sequence (P29275 1-332): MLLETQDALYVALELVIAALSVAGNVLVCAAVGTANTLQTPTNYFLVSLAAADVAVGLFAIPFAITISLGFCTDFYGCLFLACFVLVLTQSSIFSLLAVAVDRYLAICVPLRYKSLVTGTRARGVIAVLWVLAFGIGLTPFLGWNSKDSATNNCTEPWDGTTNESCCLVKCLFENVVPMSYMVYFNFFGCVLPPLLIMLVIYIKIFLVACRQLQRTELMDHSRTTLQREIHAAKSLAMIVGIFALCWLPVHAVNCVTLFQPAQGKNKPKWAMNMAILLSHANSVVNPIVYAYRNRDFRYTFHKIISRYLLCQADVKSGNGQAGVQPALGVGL

[1] = Safety and tolerability study, single-dose pharmacokinetics (Parts A, B, C); assay type: in vivo, human; conditions: for intra-subject variability (CV %) for AUC0-inf / intra-subject variability (CV %) for Cmax: across the fasting doses; for half-life / Vd/F / Tmax / AUC(0-inf) / Cmax / AUC(0-t): human, oral; for Vd/F: read-out: Vz/F
Experimental: The study was conducted in three parts: Parts A, B, and C.
Parts A and B were single-dose escalations to determine the safety and tolerability in young healthy men, and in elderly men and women, respectively. Three doses (Cohorts A1 to A3) were tested in healthy young men: 1 mg (N=6), 5 mg (N=6), and 10 mg (N=5); placebo (N=8, total of the three cohorts). […] Two doses (Cohorts B1 and B2) were tested in healthy elderly men and women: 5 mg (N=9 men/4 women), 10 mg (N=4 men/4 women); placebo (N=6 men/4 women, total of the three cohorts). […] A washout period of at least 7 days separated each dose administration.

A1 receptor [2] = target: T2, A1 receptor (Canis lupus familiaris, UniProt P11616); assay: Adenosine receptor binding affinity, dog A1
T2 sequence (P11616 1-326): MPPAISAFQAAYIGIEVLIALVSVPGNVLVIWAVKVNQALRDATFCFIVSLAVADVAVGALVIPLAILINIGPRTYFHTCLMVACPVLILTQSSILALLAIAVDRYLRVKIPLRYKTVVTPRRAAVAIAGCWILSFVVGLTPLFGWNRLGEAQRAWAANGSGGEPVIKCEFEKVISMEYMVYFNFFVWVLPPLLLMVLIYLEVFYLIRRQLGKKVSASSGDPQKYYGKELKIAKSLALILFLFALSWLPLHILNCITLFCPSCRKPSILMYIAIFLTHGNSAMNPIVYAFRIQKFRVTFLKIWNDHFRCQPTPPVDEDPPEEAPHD

A2A receptor = A2A receptor (Rattus norvegicus, UniProt P30543); assay: Reversal of CGS21680-induced hypolocomotion; assay type: in vivo
A2A receptor, sequence (P30543 whole entry): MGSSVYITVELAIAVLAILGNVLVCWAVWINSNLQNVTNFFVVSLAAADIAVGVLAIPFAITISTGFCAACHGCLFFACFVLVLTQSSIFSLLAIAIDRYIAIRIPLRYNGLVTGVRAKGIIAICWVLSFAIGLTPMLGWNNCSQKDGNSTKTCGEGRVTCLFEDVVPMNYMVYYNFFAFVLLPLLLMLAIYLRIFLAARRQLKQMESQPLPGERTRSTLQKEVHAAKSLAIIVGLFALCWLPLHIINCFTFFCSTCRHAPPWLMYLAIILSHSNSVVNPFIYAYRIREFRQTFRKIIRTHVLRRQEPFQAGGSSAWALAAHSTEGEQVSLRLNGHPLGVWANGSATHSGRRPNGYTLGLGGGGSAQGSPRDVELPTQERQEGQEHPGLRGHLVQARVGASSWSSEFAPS
Experimental: Doses of 0.01, 0.03, 0.06, 0.1 mg/kg were tested in a dosage form of 0.5 w/v % methyl cellulose 400 (viscosity: 400 cP) in distilled water. Drug was administered at a volume of 5 ml/kg, oral.
Sixty (60) male Long Evans rats, 3 months age, were allocated into 6 groups of N=10 rats per group.
The activity test, monitoring the rat's spontaneous activity was measured in the automated
Med Associates activity test chamber for 20 minutes. The tracking arena was of dimension 17′W×17″L×12″H, sensor bars were secured 1″ above the floor to track distance travelled, and a second set of sensor bars were placed 6″ above the floor to measure vertical movement and rearing activity. The parameters set on the tracking software were: resolution—50 ms, box size—4 beams, resting delay—500 ms, and ambulatory trigger—2.

A1 receptor [3] = target: T3, A1 receptor (Homo sapiens, UniProt P30542); assay: Adenosine receptor binding affinity, human A1
T3 sequence (P30542 1-326): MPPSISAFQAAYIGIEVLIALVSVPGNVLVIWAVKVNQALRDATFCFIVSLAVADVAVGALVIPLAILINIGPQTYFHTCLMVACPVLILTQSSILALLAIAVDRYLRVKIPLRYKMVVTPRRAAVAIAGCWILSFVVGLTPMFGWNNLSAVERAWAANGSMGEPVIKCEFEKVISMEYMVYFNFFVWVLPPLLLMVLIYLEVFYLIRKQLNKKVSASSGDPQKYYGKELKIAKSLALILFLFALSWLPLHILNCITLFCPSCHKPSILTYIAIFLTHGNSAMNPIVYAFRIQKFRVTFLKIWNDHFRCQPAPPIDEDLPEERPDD

[4] = both sexes, plasma, 5 mg, Part B, healthy elderly overall, arithmetic mean
[5] = both sexes, plasma, 5 mg, Part C, elderly men and women, Fasting (N = 24)
[6] = both sexes, plasma, 5 mg, Part C, elderly men and women, Fed (N = 12)
[7] = both sexes, plasma, 10 mg, Part B, healthy elderly overall, arithmetic mean
[8] = female, plasma, 5 mg, Part B, healthy elderly women, arithmetic mean
[9] = female, plasma, 10 mg, Part B, healthy elderly women, arithmetic mean
[10] = male, plasma, 1 mg, Part A, healthy young men, 1 mg single dose, mean (CV %)
[11] = male, plasma, 5 mg, Part A, healthy young men, 5 mg single dose, mean (CV %)
[12] = male, plasma, 5 mg, Part B, healthy elderly men, arithmetic mean
[13] = male, plasma, 10 mg, Part A, healthy young men, 10 mg single dose, mean (CV %)
[14] = male, plasma, 10 mg, Part B, healthy elderly men, arithmetic mean

Cc1ccc(C(=O)Nc2nc(-c3ccco3)c(C(=O)C3CCOCC3)s2)cn1 [Compound 504]
Ki (A2B): 33.8 ± 5.91 nM | differences in exposure between men and women ([1]; Part B): no marked differences | CL/F ([1]; Part B, healthy elderly men, 5 mg, arithmetic mean): 0.611 L/h | CL/F ([1]; Part B, healthy elderly men, 10 mg, arithmetic mean): 0.908 L/h | CL/F ([1]; Part B, healthy elderly overall, 5 mg, arithmetic mean): 0.597 L/h | CL/F ([1]; Part B, healthy elderly overall, 10 mg, arithmetic mean): 0.844 L/h | CL/F ([1]; Part B, healthy elderly women, 5 mg, arithmetic mean): 0.556 L/h | CL/F ([1]; Part B, healthy elderly women, 10 mg, arithmetic mean): 0.780 L/h | mean Cmax lower in the fed state than in the fasting state ([1]; Part C, 5 mg): approximately 23% | overall exposure (AUC0-inf and AUC0-t) fed compared to fasting ([1]; Part C, 5 mg): not statistically significantly different | intra-subject variability (CV %) for AUC0-inf ([1]; Part C, men): 27% | intra-subject variability (CV %) for Cmax ([1]; Part C, men): 16% | intra-subject variability (CV %) for AUC0-inf ([1]; Part C, women): 59% | intra-subject variability (CV %) for Cmax ([1]; Part C, women): 23% | time until which plasma concentration plateaued after Cmax ([1]; Parts A and B, post-dose): approximately 5 hours | half-life ([1]; both sexes, in vivo, Parts A and B, 1 to 10 mg, read-out: mean half-life (t1/2) across dose levels): 19 to 25 h | Vd/F ([1]; both sexes, plasma, 5 mg, Part B, healthy elderly overall, 5 mg, arithmetic mean): 16.9 L | half-life ([1]; both sexes, plasma, 5 mg, Part B, healthy elderly overall, 5 mg, arithmetic mean, read-out: t1/2 (converted)): 22 h | Tmax ([1]; both sexes, plasma, 5 mg, Part B, healthy elderly overall, 5 mg, median, read-out: tmax): 1 h | AUC(0-inf) [1, 4]: 9580 ng·h/mL | Cmax [1, 4]: 388 ng/mL | Tmax ([1]; both sexes, plasma, 5 mg, Part C, 5 mg, read-out: delay of median tmax in the fed state): 2 to 3 h | half-life ([1]; both sexes, plasma, 5 mg, Part C, elderly men and women, 5 mg, Fasting (N = 24), read-out: t1/2 (converted)): 14.9 h | half-life ([1]; both sexes, plasma, 5 mg, Part C, elderly men and women, 5 mg, Fed (N = 11), read-out: t1/2 (converted)): 15.8 h | AUC(0-inf) [1, 5]: 6310 ng·h/mL | AUC(0-t) [1, 5]: 5960 ng·h/mL | Cmax [1, 5]: 348 ng/mL | AUC(0-inf) ([1]; both sexes, plasma, 5 mg, Part C, elderly men and women, Fed (N = 11)): 5960 ng·h/mL | AUC(0-t) [1, 6]: 5560 ng·h/mL | Cmax [1, 6]: 269 ng/mL | Vd/F ([1]; both sexes, plasma, 10 mg, Part B, healthy elderly overall, 10 mg, arithmetic mean): 20.6 L | half-life ([1]; both sexes, plasma, 10 mg, Part B, healthy elderly overall, 10 mg, arithmetic mean, read-out: t1/2 (converted)): 20.2 h | Tmax ([1]; both sexes, plasma, 10 mg, Part B, healthy elderly overall, 10 mg, median, read-out: tmax): 0.75 h | AUC(0-inf) [1, 7]: 14900 ng·h/mL | Cmax [1, 7]: 717 ng/mL | Tmax ([1]; both sexes, plasma, Parts A and B, each dose, post-dose, read-out: median tmax): 0.75 to 1.75 h | increase of exposure (AUC0-24 and Cmax) with dose ([1]; dose range 1 to 10 mg): approximate dose-proportional manner | Vd/F ([1]; female, plasma, 5 mg, Part B, healthy elderly women, 5 mg, arithmetic mean): 13.6 L | half-life ([1]; female, plasma, 5 mg, Part B, healthy elderly women, 5 mg, arithmetic mean, read-out: t1/2 (converted)): 17.4 h | Tmax ([1]; female, plasma, 5 mg, Part B, healthy elderly women, 5 mg, median, read-out: tmax): 1 h | AUC(0-inf) [1, 8]: 9550 ng·h/mL | Cmax [1, 8]: 485 ng/mL | Vd/F ([1]; female, plasma, 10 mg, Part B, healthy elderly women, 10 mg, arithmetic mean): 19.6 L | half-life ([1]; female, plasma, 10 mg, Part B, healthy elderly women, 10 mg, arithmetic mean, read-out: t1/2 (converted)): 18.8 h | Tmax ([1]; female, plasma, 10 mg, Part B, healthy elderly women, 10 mg, median, read-out: tmax): 0.75 h | AUC(0-inf) [1, 9]: 14100 ng·h/mL | Cmax [1, 9]: 781 ng/mL | differences in pharmacokinetic profile between healthy young and elderly subjects ([1]; in vivo): no apparent differences | AUC(0-inf) [1, 10]: 2660 ng·h/mL | Cmax [1, 10]: 82.7 ng/mL | Vd/F [1, 10]: 13.4 L | half-life ([1]; male, plasma, 1 mg, Part A, healthy young men, 1 mg single dose, mean (CV %), read-out: t1/2 (converted)): 24.3 h | Tmax ([1]; male, plasma, 1 mg, Part A, healthy young men, 1 mg single dose, median (min, max), read-out: tmax): 1.25 h | AUC(0-inf) [1, 11]: 12600 ng·h/mL | Cmax [1, 11]: 423 ng/mL | Vd/F [1, 11]: 14.8 L | half-life ([1]; male, plasma, 5 mg, Part A, healthy young men, 5 mg single dose, mean (CV %), read-out: t1/2 (converted)): 25 h | Tmax ([1]; male, plasma, 5 mg, Part A, healthy young men, 5 mg single dose, median (min, max), read-out: tmax): 1.75 h | Vd/F ([1]; male, plasma, 5 mg, Part B, healthy elderly men, 5 mg, arithmetic mean): 18 L | half-life ([1]; male, plasma, 5 mg, Part B, healthy elderly men, 5 mg, arithmetic mean, read-out: t1/2 (converted)): 23.5 h | Tmax ([1]; male, plasma, 5 mg, Part B, healthy elderly men, 5 mg, median, read-out: tmax): 1 h | AUC(0-inf) [1, 12]: 9590 ng·h/mL | Cmax [1, 12]: 356 ng/mL | AUC(0-inf) [1, 13]: 18100 ng·h/mL | Cmax [1, 13]: 787 ng/mL | Vd/F [1, 13]: 15.3 L | half-life ([1]; male, plasma, 10 mg, Part A, healthy young men, 10 mg single dose, mean (CV %), read-out: t1/2 (converted)): 19.3 h | Tmax ([1]; male, plasma, 10 mg, Part A, healthy young men, 10 mg single dose, median (min, max), read-out: tmax): 1 h | Vd/F ([1]; male, plasma, 10 mg, Part B, healthy elderly men, 10 mg, arithmetic mean): 21.6 L | half-life ([1]; male, plasma, 10 mg, Part B, healthy elderly men, 10 mg, arithmetic mean, read-out: t1/2 (converted)): 21.6 h | Tmax ([1]; male, plasma, 10 mg, Part B, healthy elderly men, 10 mg, median, read-out: tmax): 0.75 h | AUC(0-inf) [1, 14]: 15700 ng·h/mL | Cmax [1, 14]: 652 ng/mL | Ki (A1 receptor [2]): 450 ± 51.1 nM | reversal of CGS-induced hypolocomotion (A2A receptor; 0.1 mg/kg oral): completely reversed | reversal of CGS-hypolocomotion (distance travelled, rearing, ambulatory episodes) (A2A receptor; 0.06 and 0.1 mg/kg doses): significantly reversed | ED50 (A2A receptor; rat, po, read-out: ED50 for antagonism of the CGS-hypolocomotion): ~0.06 mg/kg | Ki (A1 receptor [3]): 103 ± 18.4 nM
